Reference: US20110306663A1 (Baylor Research Institute, priority 2010, published 2011)
Values joined by “and” are separate entries in the source; they are usually repeats but may differ in a detail not shown here. Identical values can stand only once.

Columns and labels:
[1] = test system: patients with APBD and GBE1 deficiency; assay: Urinary organic acids and blood acylcarnitine profile analyses; assay type: in vivo, human
Protocol: (§1) In the event of an organic acid abnormality such as an excessive urinary excretion of propionic and/or methylmalonic acid occur, biotin and/or vitamin B12 respectively were added to the regimen and normalization of the organic acid and acylcarnitine profile was verified. Should that not be sufficient the dose was reduced until normalization occurs. If still abnormal, patient was be excluded from the study.
Safety was also monitored throughout the study by urinary organic acids and blood acylcarnitine profile analyses.

[2] = test system: patients with APBD and GBE1 deficiency; assay: 6 minutes walk test, open-label triheptanoin study; assay type: in vivo, human
Protocol: (§2) Ages ranged from 51-66 years and all were Ashkenazi Jewish. Three patients were able to walk independently, one walked with the help of a walker and a 5th patient was wheelchair bound.
(§3) Baseline evaluation based on the criteria described in Table I, herein below was performed every 3 months.
(§4) The outcome measures included: (i) the 6 minutes walk test and (ii) motion capture gait analysis and (iii) SF-36 Health Survey Questionnaire. […] Maximal improvement seemed to occur within the first 6 months of treatment (FIG. 2). […] Physical Function score increased in 4/5 patients on the SF-36 health survey questionnaire.

[3] = test system: patients with APBD and GBE1 deficiency; assay: SF-36 Health Survey Questionnaire, open-label triheptanoin study; assay type: in vivo, human
Protocol: as §2, §3, §4

[4] = test system: patient with pyruvate carboxylase deficiency; conditions: one patient; cited from earlier work
[5] = test system: patients with long chain fatty acid oxidation defects; conditions: 30% to 35% of total daily caloric intake; cited from earlier work
[6] = test system: patients with APBD and GBE1 deficiency; assay: Motion capture gait analysis, open-label triheptanoin study; assay type: in vivo, human
Protocol: as §2, §3, §4

[7] = test system: patients with APBD and GBE1 deficiency; assay: Adverse event assessment, open-label triheptanoin study; assay type: in vivo, human; conditions: 5 patients; for Adverse events (AE): mean 8.2 months of treatment
Protocol: as §2, §1
Two adverse events not related to the triheptanoin were a broken ankle in one patient and wound treatment in another. […] Safety was also monitored throughout the study by urinary organic acids and blood acylcarnitine profile analyses. Changes in metabolic tests related the ingestion of triheptanoin were identified.

[8] = test system: patient with adult-onset acid maltase deficiency (Pompe disease); conditions: one patient; cited from earlier work
[9] = 5 patients, within 6 months of treatment

CCCCCCC(=O)OCC(COC(=O)CCCCCC)OC(=O)CCCCCC [triheptanoin, glyceryl triheptanoate]
Catabolism of triheptanoin ([1]; conclusion from urine and plasma findings): catabolized completely without accumulation of secondary metabolites
Mitochondrial overload from triheptanoin-derived metabolites ([1]; urinary organic acids): no evidence of mitochondrial overload
Urinary excretion of derivatives of heptanoate oxidation (pimelate, 3-hydroxypentanoate, 3-ketopentanoate, 3-hydroxypropionate, methylcitrate) ([1]; urine): detected
Six minute walk test distance on treatment ([2]; 5 patients, mean ± SD after treatment (from 1246±642), p=0.06): 1376±692 feet
Six minute walk test mean increase ([2]; 5 patients, triheptanoin oil 1-2 g/fg/24 hours in 4 divided doses, 1246±642 at start, p=0.06): 130 feet
Distance walked during 6 minutes (6 minutes walk test) [2, 9]: significant improvement
Time of maximal improvement in 6-minute walk test ([2]; FIG. 2): ≤ 6 months
6-minute walk test mean improvement ([2]; mean follow up of 8.5 months, n=5, p=0.06): 10%
6-minute walk test improvement, one patient ([2]; one patient, 25 months time point): 126 feet and 9.5%
Motor performance and quality of life ([2]; open-label study, 5 patients): evidence of improved motor performance as well as quality of life
Patients with increased Physical Function score on the SF-36 ([3]; 5 patients): 4/5
SF-36 Health Survey Questionnaire scores ([3]; FIG. 3): tended to improve in parallel with motor score
Glutamine and GABA in the CSF [4]: normalization
Clinical outcome of diet treatment [5]: decreased episodes of rhabdomyolysis, improvement in pain and cardiac function
Propionyl overload [5]: No propionyl overload occurred
Gait analysis: cadence, support time, stride length, step length and walking speed ([6]; 3 patients who were able to walk unaided): improvement
Gait analysis [6, 9]: stability or slight improvement
AE remotely linked to triheptanoin [7]: rectal pain reported by one patient
Serious AE [7]: no serious AE related to triheptanoin oil
Adverse events (AE) [7]: No adverse events (AE) were reported
Adverse events (AE) ([7]; listed as triheptanoin oil): No significant adverse events occurred
Clinical response [8]: markedly improved
